Assay results from patent US7071355B2, “Compounds as anti-inflammatory, immunomodulatory and anti-proliferatory agents” (4 SC AG, priority 2002, dated 2006).

Target: human DHODH (Homo sapiens, UniProt Q02127)
Assay: Inhibition assay of DHODH activity
Format: biochemical
Conditions: recombinant human DHODH; 50 μM decyclo ubichinone, 100 μM dihydroorotate, 60 μM 2,6-dichloroindophenol; pH 8.0, 30° C.

Chain of human DHODH (Q02127 whole entry): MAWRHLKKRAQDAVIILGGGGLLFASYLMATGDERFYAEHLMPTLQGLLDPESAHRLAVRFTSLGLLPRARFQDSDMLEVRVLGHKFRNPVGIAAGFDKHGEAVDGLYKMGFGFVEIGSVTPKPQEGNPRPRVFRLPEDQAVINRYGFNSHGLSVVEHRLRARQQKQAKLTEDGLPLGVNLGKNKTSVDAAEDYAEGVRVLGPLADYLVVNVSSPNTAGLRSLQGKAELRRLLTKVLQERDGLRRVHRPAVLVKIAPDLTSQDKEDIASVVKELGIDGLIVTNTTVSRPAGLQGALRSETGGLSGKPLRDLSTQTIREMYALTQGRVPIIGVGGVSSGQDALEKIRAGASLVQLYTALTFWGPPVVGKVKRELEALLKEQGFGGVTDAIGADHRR

SMILES	IC50 [nM]
O=C(O)C1=C(C(=O)Nc2c(F)cc(-c3ccccc3F)cc2F)CCC1O (centres unmarked) [Example 12, 5-Hydroxy-2-(3,5,2′-trifluoro-biphenyl-4-ylcarbamoyl)-cyclopent-1-enecarboxylic acid]	< 1000
COc1cccc(-c2ccc(NC(=O)C3=C(C(=O)O)C(O)CC3)c(F)c2)c1 (centres unmarked) [Example 18, 2-(3-Fluoro-3′-methoxy-biphenyl-4-ylcarbamoyl)-5-hydroxy-cyclopent-1-enecarboxylic acid]	< 1000
